{"source": "the METLIN SMRT retention time set (Domingo-Almenara et al. 2019)"}
{"assay": "gradient 5% acetonitrile 3 min, to 50% in 2 min, to 85% in 15 min, held 3 min, 100 µL/min", "conditions": "column: Zorbax Extend-C18 2.1 x 50 mm; eluents: water / acetonitrile, 0.1% formic acid", "procedure,_shortened": "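In both positive and negative ionization mode, a quadrupole time-of-flight mass spectrometer coupled to HPLC analyzed pure standards run in mixtures of ~100 molecules. The Zorbax Extend-C18 column (2.1 × 50 mm, 1.8 μm) was operated at 100 μL/min with water and acetonitrile, each containing 0.1% formic acid. The dead volume was 40 μL and the dwell volume 900 μL. Retention time came from adduct peaks that were computationally picked and individually inspected by hand.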", "units": {"RP-LC retention time": "s"}}
{"compound": "CCOC(=O)CCC(=O)Nc1ccc(S(=O)(=O)N2CCc3ccccc32)cc1", "RP-LC retention time": 834}
{"compound": "CCCC(=O)Nc1ccc2c(c1)CN(C(=O)c1cccc(Cl)c1)C(C(=O)N(C)C)C2", "note": "(stereo unspecified)", "RP-LC retention time": 759}
{"compound": "CC1(C)C(=O)N(CC(=O)Nc2ccc(F)cc2F)c2ccccc21", "RP-LC retention time": 871}
{"compound": "Cc1nccn1CC(=O)N1CCCn2cc(-c3cccc(C#N)c3)nc21", "RP-LC retention time": 626}
{"compound": "COc1ccccc1-c1noc(C2CCCN2C(=O)c2cc(F)ccc2F)n1", "note": "(stereo unspecified)", "RP-LC retention time": 968}
{"compound": "CCOc1ccccc1NC(=O)c1ccccc1[N+](=O)[O-]", "RP-LC retention time": 823}
{"compound": "CCOc1ccc(C2Cn3nnc(-c4nc(-c5ccccc5F)no4)c3CO2)cc1", "note": "(stereo unspecified)", "RP-LC retention time": 1100}
{"compound": "COc1ccc(Cn2nnc3cc(C(=O)NCc4ccco4)ccc32)cc1", "RP-LC retention time": 818}
{"compound": "O=C(CN1C(=O)c2cccc3cccc(c23)C1=O)NCc1ccc2c(c1)OCO2", "RP-LC retention time": 747}
{"compound": "Cc1cc(N2CCN(C)CC2)nc2ccc(NC(=S)NCC3(c4ccccc4)CCCC3)cc12", "RP-LC retention time": 636}
{"compound": "COc1ccc(N2CCN(c3nc(C)cc(C)n3)CC2)cc1", "RP-LC retention time": 745}
{"compound": "O=C(c1cn2ccnc(-c3ccccc3)c2n1)N1CCN(C2CCCCC2)CC1", "RP-LC retention time": 637}
{"compound": "O=C(c1ccc(Cl)cc1)N1CCN(C(=O)c2nnn3c2COC(c2ccccc2)C3)CC1", "note": "(stereo unspecified)", "RP-LC retention time": 888}
{"compound": "C=Cc1ccc(Cn2nc(-c3nc(-c4ccc(F)cc4)no3)ccc2=O)cc1", "RP-LC retention time": 1200}
{"compound": "Cc1nc(C)c(-c2nnc(NC(=O)c3ccno3)o2)s1", "RP-LC retention time": 603}
{"compound": "COC(=O)C1CCN(S(=O)(=O)c2cc3c4c(c2)CCC(=O)N4CCC3)CC1", "RP-LC retention time": 724}
{"compound": "COc1ccc(Cc2nc(-c3ccc4c(c3)nc(C)c(=O)n4C)no2)cc1", "RP-LC retention time": 927}
{"compound": "COc1cccc(C2CC(c3ccc(Br)cc3)=NC3(CCN(C(C)=O)CC3)N2)c1O", "note": "(stereo unspecified)", "RP-LC retention time": 694}
{"compound": "CCCN(Cc1ccc(Cl)cc1)Cc1cc(=O)n2ccc(C)cc2n1", "RP-LC retention time": 669}
{"compound": "O=C(c1nnc(-c2ccc(S(=O)(=O)N3CCOCC3)cc2)o1)N1CCOCC1", "RP-LC retention time": 689}
{"compound": "CCOc1ccc(CCNC(=O)C2CCCN(c3ncnc4c3nc3n4CCCCC3)C2)cc1", "note": "(stereo unspecified)", "RP-LC retention time": 807}
{"compound": "Cc1nc2cccnc2n1CC1CCCN(S(=O)(=O)c2cccc(Br)c2)C1", "note": "(stereo unspecified)", "RP-LC retention time": 735}
{"compound": "CC(C)Cn1c(=O)c(-c2ccc(C(=O)N3CCC4(CC3)OCCO4)cc2)nc2ccccc21", "RP-LC retention time": 987}
{"compound": "O=C(Cc1cccs1)N1CCN(c2cnn3cnnc3c2)CC1", "RP-LC retention time": 585}
{"compound": "CCCn1ncc(N2CCC(C(=O)NCCc3cccs3)CC2)cc1=O", "RP-LC retention time": 714}
{"compound": "O=C(c1cc(C2CC2)[nH]n1)N1CCC(Cc2ccccc2)CC1", "RP-LC retention time": 902}
{"compound": "CCN(CC)c1ncc2c(n1)CCC(C(=O)Nc1ccc(OC)c(OC)c1)C2", "note": "(stereo unspecified)", "RP-LC retention time": 660}
{"compound": "COc1ccc(CNC(=O)CCc2nc3ccc(C)cc3c(=O)n2C)cc1", "RP-LC retention time": 748}
{"compound": "COCCCNC(=O)CCc1c(-c2ccc(Cl)cc2)nc2ccccn12", "RP-LC retention time": 607}
{"compound": "NC(=O)C1CCN(C(=O)Cn2c(-c3cccs3)cc3ccccc32)CC1", "RP-LC retention time": 744}
{"compound": "Cc1nn(C(=O)CC(C)C)c(C)c1S(=O)(=O)N1CCCC1", "RP-LC retention time": 586}
{"compound": "CCn1ccc2oc(C)c(C(=O)NCc3ccccc3Br)c2c1=O", "RP-LC retention time": 1020}
{"compound": "O=C(Nc1cccc(F)c1)N1CCC(n2c(-c3ccco3)nc3cccnc32)C1", "note": "(stereo unspecified)", "RP-LC retention time": 767}
{"compound": "CCN(CC)C(=O)c1ccc2c(c1)N(C(=O)NC)CC2", "RP-LC retention time": 648}
{"compound": "CC(CNC(=O)C1CCN(C(=O)c2ncn3c2COC(c2ccccc2)C3)CC1)c1ccccc1", "note": "(stereo unspecified)", "RP-LC retention time": 826}
{"compound": "COc1ccc(NC(=O)NCC23CCC=C2N(CC2CC2)C(=O)CC3)cc1", "note": "(stereo unspecified)", "RP-LC retention time": 813}
{"compound": "CCCCNC(=O)c1nnn2c1COC(c1ccc(F)cc1)C2", "note": "(stereo unspecified)", "RP-LC retention time": 929}
{"compound": "CCS(=O)(=O)N1CCCc2cc(C(=O)NC3CCCCCC3)ccc21", "RP-LC retention time": 956}
{"compound": "Cc1ccc(F)c(-n2cc(C(=O)O)nn2)c1", "RP-LC retention time": 684}
{"compound": "CCSc1nnc(NC(=O)CN(C)c2nc3c(Cl)cccc3s2)s1", "RP-LC retention time": 904}
{"compound": "O=C(CSc1ncnc2c1oc1ccccc12)Nc1nc2ccccc2s1", "RP-LC retention time": 902}
{"compound": "O=C(Nc1ccccc1F)C(=O)c1cn(CC(=O)N2CCOCC2)c2ccccc12", "RP-LC retention time": 906}
{"compound": "O=C(O)CCC(=O)Nc1ccccc1Cl", "RP-LC retention time": 616}
{"compound": "COc1cc(CCC(=O)O)on1", "RP-LC retention time": 658}
{"compound": "CCN1CCN(c2cc(C)c3cc(NC(=S)NCc4cccs4)ccc3n2)CC1", "RP-LC retention time": 584}
{"compound": "Cc1ccc(CNC(=O)C2(C)Cn3nc(C(=O)N4CCOCC4)cc3C(=O)N2C)cc1", "note": "(stereo unspecified)", "RP-LC retention time": 662}
